Publication PMC6028563, “Probing Substituents in the 1- and 3-Position: Tetrahydropyrazino-Annelated Water-Soluble Xanthine Derivatives as Multi-Target Drugs With Potent Adenosine Receptor Antagonistic Activity” (Frontiers in Chemistry, 2018)
Read-outs that look alike come from different tables or passages of the source.

Columns and labels:
human A1 AR [1] = molecular target: T1, human A1 AR (Homo sapiens, UniProt P30542); conditions: human (h); Figure 3 and introduction; ref Drabczynska et al., 2007; Koch et al., 2013; Brunschweiger et al., 2014, 2016; read-out: A1 (Ki); cited from earlier work
T1 construct: expressed in transfected cells; host or cells: CHO cells
T1 sequence (P30542 1-326): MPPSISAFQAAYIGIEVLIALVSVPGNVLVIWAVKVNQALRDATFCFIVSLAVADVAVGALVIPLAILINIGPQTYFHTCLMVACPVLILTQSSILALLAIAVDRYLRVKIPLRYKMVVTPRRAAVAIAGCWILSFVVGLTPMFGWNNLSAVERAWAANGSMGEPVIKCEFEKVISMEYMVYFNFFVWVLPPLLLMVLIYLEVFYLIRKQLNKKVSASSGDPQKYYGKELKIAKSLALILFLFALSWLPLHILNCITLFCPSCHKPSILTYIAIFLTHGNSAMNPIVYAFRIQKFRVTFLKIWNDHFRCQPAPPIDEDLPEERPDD

human A2A AR [2] = molecular target: T2, human A2A AR (Homo sapiens, UniProt P29274); conditions: human (h); Figure 3 and introduction; ref Drabczynska et al., 2007; Koch et al., 2013; Brunschweiger et al., 2014, 2016; cited from earlier work
T2 construct: expressed in transfected cells; host or cells: CHO cells
T2 sequence (P29274 whole entry): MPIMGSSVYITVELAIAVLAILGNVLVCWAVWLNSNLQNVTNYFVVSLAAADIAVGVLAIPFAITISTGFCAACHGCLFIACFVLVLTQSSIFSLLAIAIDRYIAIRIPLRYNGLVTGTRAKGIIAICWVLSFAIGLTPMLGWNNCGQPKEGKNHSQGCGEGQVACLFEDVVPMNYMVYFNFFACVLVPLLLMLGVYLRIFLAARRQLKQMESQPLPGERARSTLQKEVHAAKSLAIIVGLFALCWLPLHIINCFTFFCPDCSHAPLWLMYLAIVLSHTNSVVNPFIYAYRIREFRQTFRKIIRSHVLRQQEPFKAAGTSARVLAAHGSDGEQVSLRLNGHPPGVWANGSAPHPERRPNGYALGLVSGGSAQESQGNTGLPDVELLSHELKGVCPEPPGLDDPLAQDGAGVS

human A1 AR [3] = molecular target: T1, human A1 AR; experiment: Radioligand binding assay at human A1 AR vs. [^3H]CCPA; conditions: human (h); CHO cell membranes; n = 3
Outline: (§1)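 Competition binding; rat A1: brain cortex membranes; rat A2A: brain striatum membranes; human A1/A2A/A2B/A3: membranes from CHO cells each expressing one human subtype. Affinity only, no functional testing.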

rat A1 AR = molecular target: T3, rat A1 AR (Rattus norvegicus, UniProt P25099); experiment: Radioligand binding assay at rat A1 AR (rat brain cortex) vs. [^3H]CCPA; conditions: rat (r); rat brain cortex; n = 3
T3 construct: A1 ARs of rat brain cortical membrane; from tissue; host or cells: rat brain cortex membranes
T3 sequence (P25099 1-326): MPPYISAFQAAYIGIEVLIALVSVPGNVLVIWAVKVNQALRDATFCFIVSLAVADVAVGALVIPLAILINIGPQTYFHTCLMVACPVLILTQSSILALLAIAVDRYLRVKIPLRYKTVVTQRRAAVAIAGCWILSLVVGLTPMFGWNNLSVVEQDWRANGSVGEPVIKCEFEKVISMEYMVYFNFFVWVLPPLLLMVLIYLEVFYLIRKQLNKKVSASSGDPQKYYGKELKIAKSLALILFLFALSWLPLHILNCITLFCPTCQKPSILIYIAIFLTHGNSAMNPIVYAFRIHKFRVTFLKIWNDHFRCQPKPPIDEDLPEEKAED
Outline: as §1

human A2A AR [4] = molecular target: T2, human A2A AR; experiment: Radioligand binding assay at human A2A AR vs. [^3H]MSX-2; conditions: at 1,000 nM
Procedure: Membrane preparations and radioligand binding assays at rat A1 (rat brain cortex) and rat A2A ARs (rat brain striatum) were performed as previously described (Ozola et al., [2003]; Alnouri et al., [2015]). For assays at human A1, A2A, A2B, and A3 ARs, CHO cell membranes expressing one of the human AR subtypes were used as previously reported (Klotz et al., [1998]; Alnouri et al., [2015]; De Filippo et al., [2016]).
The synthesized tetrahydropyrazino[2,1-f ]purinediones 13–20 were evaluated in radioligand binding assays for their affinity to A1 ARs of rat brain cortical membrane and to A2A ARs of rat brain striatal membrane preparations. Selected compounds were further investigated for their affinity to human A1 and A2A ARs recombinantly expressed in Chinese hamster ovary (CHO) cells. All compounds were additionally investigated for their affinity to human A2B and A3 ARs recombinantly expressed in CHO cells to determine their AR subtype selectivity. […] It is well known that all xanthine derivatives lacking a ribose moiety, including tricyclic compounds, can only block ARs, but never act as AR agonists; therefore, additional functional studies were not required. […] Potent MAO-B inhibitors were additionally investigated for inhibition of human MAO-A to assess their selectivity. Results are presented in Tables 1–6, and data of standard ligands are included for comparison.

rat A2A AR = molecular target: T4, rat A2A AR (Rattus norvegicus, UniProt P30543); experiment: Radioligand binding assay at rat A2A AR (rat brain striatum) vs. [^3H]MSX-2; conditions: rat (r)
T4 construct: A2A ARs of rat brain striatal membrane preparations; from tissue; host or cells: rat brain striatum membranes
T4 sequence (P30543 whole entry): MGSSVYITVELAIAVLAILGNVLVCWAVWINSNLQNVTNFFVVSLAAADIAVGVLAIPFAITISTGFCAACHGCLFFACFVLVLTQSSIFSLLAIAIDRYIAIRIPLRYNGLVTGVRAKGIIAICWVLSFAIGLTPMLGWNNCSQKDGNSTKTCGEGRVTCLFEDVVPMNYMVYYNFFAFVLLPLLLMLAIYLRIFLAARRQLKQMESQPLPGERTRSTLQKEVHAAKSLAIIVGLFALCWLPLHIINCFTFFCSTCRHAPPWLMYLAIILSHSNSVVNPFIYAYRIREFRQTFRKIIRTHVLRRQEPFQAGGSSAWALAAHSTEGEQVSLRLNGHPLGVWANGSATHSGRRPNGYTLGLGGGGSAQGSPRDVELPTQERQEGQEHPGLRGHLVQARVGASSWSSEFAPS
Outline: as §1

human A2B AR = molecular target: T5, human A2B AR (Homo sapiens, UniProt P29275); experiment: Radioligand binding assay at human A2B AR vs. [^3H]PSB-603; conditions: at 10,000 nM, read-out: % inhibition of radioligand binding at indicated concentration, A2B vs. [^3H]PSB-603
T5 construct: expressed in transfected cells; host or cells: CHO cells
T5 sequence (P29275 1-332): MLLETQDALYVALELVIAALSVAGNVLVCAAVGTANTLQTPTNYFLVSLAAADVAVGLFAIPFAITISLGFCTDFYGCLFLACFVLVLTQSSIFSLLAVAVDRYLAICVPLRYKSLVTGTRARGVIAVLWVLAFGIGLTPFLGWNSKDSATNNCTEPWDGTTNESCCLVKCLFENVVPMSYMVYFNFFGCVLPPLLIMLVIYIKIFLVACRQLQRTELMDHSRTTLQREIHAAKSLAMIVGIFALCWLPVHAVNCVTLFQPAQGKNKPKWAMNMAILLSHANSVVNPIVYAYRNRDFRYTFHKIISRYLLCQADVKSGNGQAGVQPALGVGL
Outline: as §1

recombinant human MAO-A = molecular target: T6, recombinant human MAO-A (Homo sapiens, UniProt P21397); experiment: Monoamine oxidase assay (Amplex Red), MAO-A; assay type: biochemical
T6 construct: purchased Sigma-Aldrich M7316; host or cells: baculovirus-infected insect cells
T6 sequence (P21397 1-527): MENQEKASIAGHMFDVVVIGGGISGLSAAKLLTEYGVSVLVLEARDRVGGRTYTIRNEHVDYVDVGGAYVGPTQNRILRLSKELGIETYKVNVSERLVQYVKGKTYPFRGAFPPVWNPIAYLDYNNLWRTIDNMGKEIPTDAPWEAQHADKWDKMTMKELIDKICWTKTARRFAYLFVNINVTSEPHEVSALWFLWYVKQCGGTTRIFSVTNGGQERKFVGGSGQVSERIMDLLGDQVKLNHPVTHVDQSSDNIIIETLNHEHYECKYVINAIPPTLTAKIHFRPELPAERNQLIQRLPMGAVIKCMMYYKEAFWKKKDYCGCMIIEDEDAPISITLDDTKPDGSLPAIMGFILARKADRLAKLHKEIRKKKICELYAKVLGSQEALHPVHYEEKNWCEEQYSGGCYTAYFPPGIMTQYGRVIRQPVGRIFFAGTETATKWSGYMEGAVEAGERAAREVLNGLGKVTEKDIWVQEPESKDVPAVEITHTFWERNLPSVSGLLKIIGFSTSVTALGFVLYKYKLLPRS
Procedure: The determination of MAO-A and MAO-B inhibition was performed using commercially available recombinant human MAO-A and MAO-B enzymes expressed in baculovirus-infected insects sells (Sigma-Aldrich, M7316 and M7441) applying the commercially available Amplex® Red monoamine oxidase assay kit (Invitrogen A12214). The assays were performed as previously described. The determination of rat MAO-B inhibition was performed using mitochondrial-enriched fractions from male Sprague Dawley rat livers. […]

recombinant human MAO-B = molecular target: T7, recombinant human MAO-B (Homo sapiens, UniProt P27338); experiment: Monoamine oxidase assay (Amplex Red), MAO-B; assay type: biochemical
T7 construct: purchased Sigma-Aldrich M7441; host or cells: baculovirus-infected insect cells
T7 sequence (P27338 1-520): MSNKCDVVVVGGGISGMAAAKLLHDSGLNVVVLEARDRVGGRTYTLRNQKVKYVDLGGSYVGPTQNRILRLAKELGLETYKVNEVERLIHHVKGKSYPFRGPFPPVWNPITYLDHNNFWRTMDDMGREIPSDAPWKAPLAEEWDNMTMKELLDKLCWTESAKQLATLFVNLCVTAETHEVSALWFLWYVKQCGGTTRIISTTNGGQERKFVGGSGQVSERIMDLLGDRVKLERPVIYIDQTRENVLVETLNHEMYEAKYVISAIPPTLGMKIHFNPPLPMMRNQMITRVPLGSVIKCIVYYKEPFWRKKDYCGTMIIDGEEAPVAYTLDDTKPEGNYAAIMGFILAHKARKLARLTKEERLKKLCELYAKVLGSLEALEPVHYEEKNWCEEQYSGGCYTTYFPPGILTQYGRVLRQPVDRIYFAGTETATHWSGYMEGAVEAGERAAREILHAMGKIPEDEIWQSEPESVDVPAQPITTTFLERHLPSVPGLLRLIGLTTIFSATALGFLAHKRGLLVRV
Outline: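 Inhibition was measured with an Amplex Red monoamine oxidase assay, using human MAO-A and MAO-B produced recombinantly in baculovirus-infected insect cells. For rat MAO-B, liver mitochondria-enriched fractions from male Sprague Dawley rats served as enzyme source.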

Ki (human A1 AR [3]) [µM]	Ki (rat A1 AR) [µM]	% inhibition of radioligand binding at indicated concentration, A2A vs. [^3H]MSX-2 (human A2A AR [4]) [%]	% inhibition of radioligand binding at indicated concentration, A2A vs. [^3H]MSX-2 (rat A2A AR; at 1,000 nM) [%]	Ki (rat A2A AR; rat brain striatum, n = 3, read-out: Ki ± SEM, A2A vs. [^3H]MSX-2) [µM]	inhibition at 10 µM (human A2B AR) [%]	inhibition at 10 µM (recombinant human MAO-A; at 10,000 nM, read-out: % inhibition at indicated concentration, Human MAO-A) [%]	IC50 (recombinant human MAO-A; n = 3, read-out: IC50 ± SEM, Human MAO-A) [µM]	inhibition at 10 µM (recombinant human MAO-B; at 10,000 nM (10 μM), read-out: % inhibition at indicated concentration, Human MAO-B) [%]	IC50 (recombinant human MAO-B; n = 3, read-out: IC50 ± SEM, Human MAO-B) [µM]	Compound	Ki (human A1 AR [1]) [µM]	Ki (human A2A AR [2]) [µM]
–	–	–	–	–	–	–	–	–	–	1,3-Dimethyl-6,7,8,9-tetrahydropyrazino[2,1-f ]purine-2,4(1H,3H)-dione [Compound 10c]	0.116	0.094
–	–	–	–	–	–	–	–	–	–	Cn1c(=O)c2c(nc3n2CCCN3Cc2ccccc2)n(C)c1=O [Compound 9a]	0.249	0.253
0.121 ± 0.045	0.053 ± 0.0058	8	33	> 1	36	20	> 10	> 50	≤ 10	CCn1c(=O)c2c(nc3n2CCN(Cc2cccc(Cl)c2)C3)n(C)c1=O [Compound 14i, 8-(3-chlorobenzyl)-3-ethyl-1-methyl-6,7,8,9-tetrahydropyrazino[2,1-f]purine-2,4(1H,3H)-dione]	–	–
